# Measurements published in patent US12134769B2, “MicroRNA-198 as a tumor suppressor in ovarian cancer” (Baylor College of Medicine, priority 2011, dated 2024).
# Tests used:
# MIA-MSLN cells = test: NF-κB inhibitor assay, expression by real-time RT-PCR and western blot; assay type: cell-based, human
# Description: Western blots were performed as previously described (Li et al., 2008). Membranes were probed with: anti-MSLN monoclonal antibody (1:1000) (Abcam); PBX-1 polyclonal antibody (1:1000) and Caspase 3 antibody (1:1000) (Cell Signaling); OCT-2 polyclonal antibody (1:400), and VCP polyclonal antibody (1:200) (Santa Cruz Biotechnology); or anti-β-actin, Tubulin, LaminA or GAPDH antibodies (1:10,000) (Sigma Aldrich). Secondary incubation was performed with horseradish peroxidase-linked secondary antibody (1:2,000) (anti-mouse, anti-goat or anti-rabbit) (Cell Signaling).
# Differential expression of 95 miRNAs chosen for their potential roles in cancer, cell development, and apoptosis was analyzed by RT-PCR using the QuantiMir System from SBI System Biosciences in both MIA-V and MIA-MSLN cells. The array plate also included the U6 transcript as a normalization signal. cDNAs from different cell lines and tissue samples were mixed with SYBR® Green Mastermix (Bio-Rad Laboratories) plus the universal reverse primer. Specific primers (1 μl) were added to each well of the qPCR plate. Expression levels of each mature miRNA were evaluated using comparative threshold cycle (Ct) method as normalized to that of U6 (2—ΔCt). The expression level of miR-198 was measured in all subsequent experiments using the same method. Real-time RT PCR was performed as previously described for MSLN, ZEB1, PBX-1, and VCP (Li et al., 2008). The primer sequences used are as follows:
# MIA-MSLN and MIA-V control cells were treated with 0, 12.5 or 25 μM of the IKK inhibitor Wedelolactone (Calbiochem). The cells were collected after 72 h and protein, RNA, and miRNA extracts were prepared and assayed accordingly.
# AsPC1 cells = test: NF-κB inhibitor assay, OCT-2 expression; assay type: cell-based, human; details: FIG. 11B
smiles,measurement,setting,value
COc1cc(O)c2c(c1)oc(=O)c1c3cc(O)c(O)cc3oc21 [Wedelolactone],ZEB1 expression,MIA-MSLN cells; MIA-MSLN cells,completely blocked ZEB1 expression
same,increase in miR-198 expression,"MIA-MSLN cells; MIA-MSLN cells, compared to untreated controls, 72 h",~17 fold
same,OCT-2 expression,"MIA-MSLN cells; MIA-MSLN cells, mRNA and protein levels",almost complete block in OCT-2 expression
same,PBX-1 expression,"MIA-MSLN cells; Wedelolactone inhibition of NF-κB, FIG. 3F",downregulation of PBX-1 expression
same,OCT-2 expression,AsPC1 cells,OCT-2 expression is blocked
